Values after ≈ are worked out from the molar mass of the structure shown. Bridge positions count the residues as written; N and C are the ends. Peptide text beside a SMILES is read from it. I, II: the chains in the order shown.
Key:
[1] = test system: human conjunctival epithelial cells; format: cell-based
Method: The results are from four independent experiments and data points show the mean and standard deviations. The X axis indicates the peptide concentration in μg/ml and the Y axis indicates the % cell viability. The cytotoxicity of V2 dimer were tested against human conjunctival cells according to the method described in WO 2007/126392 and compared with native hBD3. […] Wildtype hBD3 was cytotoxic at concentrations of about 15 μg/ml, however, the V2 dimer was not cytotoxic at concentrations of 100 μg/ml.

[2] = test system: Clinical Pseudomonas aeruginosa PAE 249 DM15013 Source: Wound; format: cell-based; conditions: Clinical PAE 249 DM15013 Source: Wound
Method: (§1) MICs was determined by broth macrodilution method modified from that described by the National Committee for Clinical Laboratory Standards (NCCL). The Mueller Hinton Broth (MHB) at ⅙ strength and without addition of Ca^2+ and Mg^2+ was used for dilution. Serial twofold dilutions of V2 dimer solution was prepared in MHB (⅙ strength) in test tubes. 1 ml of inoculum of test organisms in MHB (⅙ strength) was added to 1 ml of each dilution of V2 dimer to yield as final concentration of 10^4 to 10^5 colony forming units/ml in each test tube. The tubes were incubated at 35° C. for 16 to 20 hours. A positive control containing only the broth and organism, and a negative control tube containing only the broth were also incubated in parallel to the test samples. The above was repeated for each different test organism in separate experiments. The MIC of V2 dimer peptide for each clinical isolate or reference organism was read as the lowest concentration of peptide that inhibited visible growth of the test organism.
(§2) The MIC was also determined for other peptides and compared to gentamicin.

[3] = test system: Escherichia coli ATCC25922; format: cell-based
Method: as §1, §2

[4] = test system: Clinical Pseudomonas aeruginosa 07DM023376 Source: Eye; format: cell-based; conditions: Clinical 07DM023376 Source: Eye
Method: as §1, §2

[5] = test system: Clinical Pseudomonas aeruginosa 07DM 023257 Source: Eye; format: cell-based; conditions: Clinical 07DM 023257 Source: Eye
Method: as §1, §2

[6] = test system: Clinical Pseudomonas aeruginosa PAE 239 DM5790/07 Source: Wound; format: cell-based; conditions: Clinical PAE 239 DM5790/07 Source: Wound
Method: as §1, §2

[7] = test system: Clinical Escherichia coli DU46381R Source: Urine; format: cell-based
Method: as §1, §2

[8] = test system: Clinical Pseudomonas aeruginosa PAE 230 DR4877/07 Source: Sputum; format: cell-based; conditions: Clinical PAE 230 DR4877/07 Source: Sputum
Method: as §1, §2

[9] = test system: Clinical Pseudomonas aeruginosa DM 023155 Source: Eye; format: cell-based; conditions: Clinical DM 023155 Source: Eye
Method: as §1, §2

[10] = test system: Clinical Staphylococcus aureus DM4001 Source: Eye; format: cell-based
Method: as §1, §2

[11] = test system: Candida albicans ATCC10231; format: cell-based
Method: as §1, §2

[12] = test system: Clinical Pseudomonas aeruginosa PAE 240 DU14476/07 Source: Urine; format: cell-based; conditions: Clinical PAE 240 DU14476/07 Source: Urine
Method: as §1, §2

[13] = test system: Fusarium solani ATCC 36031; format: cell-based
Method: as §1, §2

[14] = test system: Clinical Pseudomonas aeruginosa DM 023104 Source: Eye; format: cell-based; conditions: Clinical DM 023104 Source: Eye
Method: as §1, §2

[15] = test system: Clinical Escherichia coli DB16027 Source: Blood; format: cell-based; conditions: Clinical DB16027 Source: Blood
Method: as §1, §2

[16] = test system: Clinical Cadida albicans DF2672R Source: Urine; format: cell-based, Candida albicans
Method: as §1, §2

| Molecule | concentration at which cytotoxic [1] | MIC [2] | MIC [3] | MIC [4] | MIC [5] | MIC [6] | MIC [7] | MIC [8] | MIC [9] | MIC [10] | MIC [11] | MIC [12] | MIC [13] | MIC [14] | MIC [15] | MIC [16] |
| --- | --- | --- | --- | --- | --- | --- | --- | --- | --- | --- | --- | --- | --- | --- | --- | --- |
| GIINTLQKYYCRVRGGRCAVLSCLPKEEQIGKCSTRGRKCCRRKK (Homo sapien) [Wildtype hBD3, reference compound] | about 15 μg/ml |  |  |  |  |  |  |  |  |  |  |  |  |  |  |  |
| N=C(N)NCCC[C@H](NC(=O)CNC(=O)[C@@H](N)CCCNC(=N)N)C(=O)N[C@@H](CCCCN)C(=O)N[C@@H](Cc1ccc(O)cc1)C(=O)N[C@@H](Cc1ccc(O)cc1)C(=O)N[C@@H](CCCNC(=N)N)C(=O)N[C@@H](CCCNC(=N)N)C(=O)NCCCC[C@H](NC(=O)[C@H](CCCNC(=N)N)NC(=O)[C@H](CCCNC(=N)N)NC(=O)[C@H](Cc1ccc(O)cc1)NC(=O)[C@H](Cc1ccc(O)cc1)NC(=O)[C@H](CCCCN)NC(=O)[C@H](CCCNC(=N)N)NC(=O)CNC(=O)[C@@H](N)CCCNC(=N)N)C(=O)N[C@@H](CCCCN)C(=O)O [Y2-dimer] (I: H-RGRKYYRRKK-OH / II: H-RGRKYYRR; amide I:9-II:C; N-terminus assumed) |  | 12.5 µg/mL (≈ 4.91 µM) | 12.5 µg/mL (≈ 4.91 µM) | 25 µg/mL (≈ 9.82 µM) | 12.5 µg/mL (≈ 4.91 µM) | 12.5 µg/mL (≈ 4.91 µM) | 12.5 µg/mL (≈ 4.91 µM) | 12.5 µg/mL (≈ 4.91 µM) | 25 µg/mL (≈ 9.82 µM) | 12.5 µg/mL (≈ 4.91 µM) | 25 µg/mL (≈ 9.82 µM) | 6.25 µg/mL (≈ 2.45 µM) | 12.5 µg/mL (≈ 4.91 µM) | 12.5 µg/mL (≈ 4.91 µM) | 6.25 µg/mL (≈ 2.45 µM) | 12.5 µg/mL (≈ 4.91 µM) |

Source: patent US9220264B2, “Multimeric forms of antimicrobial peptides” (Singapore Health Services Pte Ltd., priority 2008, dated 2015)
